Results reported in patent publication US20120122870A1, “Treatment Of Ischemia-Reperfusion Injury” (MUSC FOUNDATION FOR RESEARCH DEVELOPMENT, priority 2009, published 2012).

How the values were obtained:
recombinant human SK = molecular target: T1, recombinant human SK (Homo sapiens, UniProt Q9NYA1); experiment: Recombinant human SK activity assay ([3H]sphingosine to [3H]S1P); type: biochemical; conditions: Human SK incubated with 6 μg/mL of compound; percentage of SK activity inhibited
T1 construct: GST (glutathione-S-transferase) (N); made in house; host or cells: bacteria (pGEX bacterial expression vector)

[1] = system: endogenous SK activity in MDA-MB-231 cells; experiment: Cellular S1P production (endogenous SK activity) in MDA-MB-231 cells; type: cell-based; conditions: for inhibition at 20 µg/mL / IC50: Homo sapiens; for inhibition at 20 µg/mL: MDA-MB-231, MDA-MB-231 cells incubated with 20 μg/mL of compound; for inhibition at 20 µg/mL / Cellular S1P (% inhibition): percentage of S1P production inhibited; for IC50: MDA-MB-231 cells, varying concentrations, concentration inhibiting S1P production by 50%; for Cellular S1P (% inhibition): MDA-MB-231 cells incubated with 20 μg/mL of compound
In short: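 MDA-MB-231 cells treated with 20 μg/mL compound and assayed for endogenous SK activity, reported as % inhibition of S1P production. For IC50, cells received varying compound concentrations and S1P produced was measured; IC50 is the concentration giving 50% inhibition.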

T1 sequence (Q9NYA1 whole entry): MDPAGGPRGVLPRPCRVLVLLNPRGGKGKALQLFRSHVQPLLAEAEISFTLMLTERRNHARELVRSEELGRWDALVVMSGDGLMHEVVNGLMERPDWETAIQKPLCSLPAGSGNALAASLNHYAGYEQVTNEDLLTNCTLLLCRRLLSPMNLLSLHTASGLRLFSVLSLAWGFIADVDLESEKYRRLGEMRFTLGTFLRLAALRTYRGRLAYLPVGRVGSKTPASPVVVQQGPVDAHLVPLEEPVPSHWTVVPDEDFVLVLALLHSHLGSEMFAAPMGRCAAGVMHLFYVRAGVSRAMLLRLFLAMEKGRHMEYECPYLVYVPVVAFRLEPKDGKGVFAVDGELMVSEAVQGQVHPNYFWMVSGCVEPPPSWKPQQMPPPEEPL

Row | Compound | inhibition at 6 µg/mL (recombinant human SK) [%] | inhibition at 20 µg/mL [1] [%] | IC50 [1] [µM] | Recombinant SK (% inhibition) (recombinant human SK) [%] | Cellular S1P (% inhibition) [1] [%]
1 | CN1CCC(NC(=O)C23CC4CC(C2)CC(c2ccc(Cl)cc2)(C4)C3)CC1 [A51, 3-(4-Chloro-phenyl)-adamantane-1-carboxylic acid (1-methyl-piperidin-4-yl)-amide] | 84 | 88 | 25 |  | 
2 | CN1CCN(NC(=O)C23CC4CC(C2)CC(c2ccc(Cl)cc2)(C4)C3)CC1 [A52, 3-(4-Chloro-phenyl)-adamantane-1-carboxylic acid (4-methyl-piperazin-1-yl)-amide] | 54 | 61 |  |  | 
3 | CN1CCCC1CCNC(=O)C12CC3CC(CC(C3)C1)C2 (centres unmarked) [A56, Adamantane-1-carboxylic acid [2-(1-methyl-pyrrolidin-2-yl)-ethyl]-amide] | 33 | 40 |  |  | 
4 | CN1CCCC1CCNC(=O)C12CC3CC(C1)CC(c1ccc(Cl)cc1)(C3)C2 (centres unmarked) [A57, 3-(4-Chloro-phenyl)-adamantane-1-carboxylic acid [2-(1-methyl-pyrrolidin-2-yl)-ethyl]-amide] | 30 | 83 | 60 |  | 
5 | O=C(NCCN1CCOCC1)C12CC3CC(C1)CC(c1ccc(Cl)cc1)(C3)C2 [A58, 3-(4-Chloro-phenyl)-adamantane-1-carboxylic acid (2-morpholin-4-yl-ethyl)-amide] | 67 | 55 |  |  | 
6 | O=C(NCc1ccncc1)C12CC3CC(CC(C3)C1)C2 [A60, Adamantane-1-carboxylic acid (pyridin-4-ylmethyl)-amide] | 0 | 23 |  |  | 
7 | O=C(NCc1ccncc1)C12CC3CC(C1)CC(c1ccc(F)cc1)(C3)C2 [A61, 3-(4-Fluoro-phenyl)-adamantane-1-carboxylic acid (pyridin-4-ylmethyl)-amide] | 58 | 24 |  |  | 
8 | O=C(NCc1ccncc1)C12CC3CC(C1)CC(c1ccc(Cl)cc1)(C3)C2 [A62, 3-(4-Chloro-phenyl)-adamantane-1-carboxylic acid (pyridin-4-ylmethyl)-amide] | 13 | 92 | 26 |  | 
9 | O=C(NCc1ccncc1)C12CC3CC(CC(C3)C1)C2 [A63, Adamantane-1-carboxylic acid (pyridin-4-ylmethyl)-amide] |  |  |  | 0 | 39
10 | O=C(NCCc1ccncc1)C12CC3CC(C1)CC(c1ccc(Cl)cc1)(C3)C2 [A64, 3-(4-Chloro-phenyl)-adamantane-1-carboxylic acid (2-pyridin-4-yl-ethyl)-amide] | 41 | 80 | 63 |  | 
11 | Cc1cc2cc(NC(=O)C34CC5CC(C3)CC(c3ccc(Cl)cc3)(C5)C4)ccc2[nH]1 [A66, 3-(4-Chloro-phenyl)-adamantane-1-carboxylic acid (2-methyl-1H-indol-5-yl)-amide] | 92 | 8 |  |  | 
12 | CCn1c2ccccc2c2cc(NC(=O)C34CC5CC(C3)CC(c3ccc(Cl)cc3)(C5)C4)ccc21 [A68, 3-(4-Chloro-phenyl)-adamantane-1-carboxylic acid (9-ethyl-9H-carbazol-3-yl)-amide] | 17 | 0 |  |  | 
13 | O=C(Nc1nc(-c2ccc(Cl)cc2)cs1)C12CC3CC(CC(C3)C1)C2 [A69, Adamantane-1-carboxylic acid [4-(4-chloro-phenyl)-thiazol-2-yl]-amide] | 40 | 13 |  |  | 
14 | O=C(Nc1nc(-c2ccc(Cl)cc2)cs1)C12CC3CC(C1)CC(c1ccc(Cl)cc1)(C3)C2 [A70, 3-(4-Chloro-phenyl)-adamantane-1-carboxylic acid [4-(4-chloro-phenyl)-thiazol-2-yl]-amide] | 33 | 4 |  |  | 
15 | O=C(Nc1nc2ccccc2s1)C12CC3CC(C1)CC(c1ccc(Cl)cc1)(C3)C2 [A71, 3-(4-Chloro-phenyl)-adamantane-1-carboxylic acid benzothiazol-2-ylamide] | 27 | 0 |  |  | 
16 | O=C(Nc1nc2cc(Cl)ccc2o1)C12CC3CC(C1)CC(c1ccc(Cl)cc1)(C3)C2 [A72, 3-(4-Chloro-phenyl)-adamantane-1-carboxylic acid (5-chloro-benzooxazol-2-yl)-amide] | 14 | 1 |  |  | 
17 | CN1CCN(NCC23CC4CC(C2)CC(c2ccc(Cl)cc2)(C4)C3)CC1 [A83, [3-(4-Chloro-phenyl)-adamantan-1-ylmethyl]-(4-methyl-piperazin-1-yl)-amine] | 60 | 88 | 16 |  | 
18 | Clc1ccc(C23CC4CC(CC(CNCCN5CCOCC5)(C4)C2)C3)cc1 [A87, [3-(4-Chloro-phenyl)-adamantan-1-ylmethyl]-(2-morpholin-4-yl-ethyl)-amine] | 75 | 55 | 64 |  | 
19 | CCn1c2ccccc2c2cc(NCC34CC5CC(C3)CC(c3ccc(Cl)cc3)(C5)C4)ccc21 [A89, [3-(4-Chloro-phenyl)-admantan-1-ylmethyl]-(9-ethyl-9H-carbazol-3-yl)-amine] |  |  |  | 37 | 1
20 | Clc1ccc(-c2cnc(NCC34CC5CC(C3)CC(c3ccc(Cl)cc3)(C5)C4)s2)cc1 [A90, [3-(4-Chloro-phenyl)-adamantan-1-ylmethyl]-[5-(4-chloro-phenyl)-thiazol-2-yl]-amine] | 26 | 16 |  |  | 
21 | CCn1c2ccccc2c2cc(NC(C)C34CC5CC(CC(c6ccc(Cl)cc6)(C5)C3)C4)ccc21 (centres unmarked) [A114, {1-[3-(4-Chloro-phenyl)-adamantan-1-yl]-ethyl}-(9-ethyl-9H-carbazol-3-yl)-amine] | 33 | 46 | 51 |  | 
22 | CC(NC(=O)Nc1ccc(Cl)c(C(F)(F)F)c1)C12CC3CC(CC(c4ccc(Cl)cc4)(C3)C1)C2 (centres unmarked) [A118, 1-{1-[3-(4-Chloro-phenyl)-adamantan-1-yl]-ethyl}-3-(4-chloro-3-trifluoromethyl-phenyl)-urea] | 77 | 5 |  |  | 
23 | CCCCCCCCCCCCCCCC(=O)Nc1nc(-c2ccc(Cl)cc2)cs1 [B3, Hexadecanoic acid [4-(4-chloro-phnyl)-thiazol-2-yl]-amide] |  |  |  | 88 | 34
